Columns and labels:
Format in all cases: cell-based
[1] = tested on: miR-143 and miR-145 expression in HPNE-Kras^G12D cells; assay: miR-143 and miR-145 expression by northern blot and qRT-PCR in HPNE-Kras^G12D cells; settings: HPNE-Kras^G12D cells treated with inhibitor
Source text: (§1) Vista was used to generate pairwise alignments between the genomic sequence from human (May 2004 assembly) and the indicated species. The graph is a plot of nucleotide identity for a 100-bp sliding window centered at a given position. […] Expression of RNA transcripts was normalized to β-actin. FIG. 3C is a graph showing the results of a quantitative RT-PCR analysis of miR-143 and miR-145 expression in the cell lines described above. miRNA expression was normalized to 18S RNA. Error bars represent standard deviations.
(§2) U6 served as a loading control. […] Error bars represent standard deviations.
(§3) HPNE-Kras^G12D cells were infected with the anti-RREB-1 lentivirus-shRNA construct and selected in neomycin.
(§4) Kras activity leads to activation of both the Map Kinase (MAPK) cascade (also known as the RAF/MEK/MAPK pathway) and the phosphatidylinositol-3 kinase (PI3K) pathway. In order to determine which of these downstream effector pathways is involved in the Kras-RREB1-miR-143/145 pathway, levels of miR-143 and miR-145 were examined in HPNE-Kras^G12D cells treated with specific inhibitors that target MAPK and PI3K.

[2] = tested on: miR-143/145 primary transcript in HPNE-Kras^G12D cells; assay: quantitative RT-PCR of miR-143/145 primary transcript in HPNE-Kras^G12D cells; settings: HPNE-Kras^G12D cells treated with inhibitor; qRT-PCR
Source text: as §1, §2, §3, §4

[3] = tested on: RREB-1 expression in HPNE-Kras^G12D cells; assay: qPCR of RREB-1 expression in HPNE-Kras^G12D cells; settings: HPNE-Kras^G12D cells treated with inhibitor
Source text: as §1, §2, §3, §4

Row | SMILES | miR-143 and miR-145 expression [1] | level of the miR-143/145 primary transcript [2] | RREB-1 expression [3]
1 | O=c1cc(N2CCOCC2)oc2c(-c3ccccc3)cccc12 [LY294002] | no effect | – | –
2 | N#CC(=C(/N)Sc1ccccc1N)/C(C#N)=C(\N)Sc1ccccc1N [U0126, 1,4-diamino-2,3-dicyano-1,4-bis(2-aminophenylthio)butadiene] | significant increase | increased | decreased

From patent US20110009469A1, “COMPOSITIONS AND METHODS OF TREATING NEOPLASIA” (The Johns Hopkins University, priority 2007, published 2011)
